Assay results reported in the supplement of paper PMC11451515.

Experiments:
SEM cells = experiment: cell viability relative to DMSO control; higher = less cytotoxic; settings: 48 h
In short: (§1)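 NOMO1 or SEM (500 cells/well) or P12-Ichikawa (1000 cells/well) leukemia cells were adapted for at least four passages in each medium. They were seeded in 1536-well plates (5 μl) and pin-dosed with library compounds in DMSO over an 11-point threefold series, 47 μM to 0.79 nM. CellTiter-Glo One luminescence was read after 48 h at 37°C. Viability is the per-plate percentage relative to DMSO wells, with cell-free wells as background.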

NOMO1 = experiment: as above; settings: 48 h
In short: as §1

CCCC(CCC)C(=O)[O-]
cell viability [%]
Settings	HPLM + 10% dialyzed FBS	RPMI 5 mM glucose + 10% FBS	RPMI 5 mM glucose + 10% dialyzed FBS
NOMO1, 0.000781 µM	106	86.1	75.5
NOMO1, 0.00234 µM	105	96.6	108
NOMO1, 0.00702 µM	113	107	105
NOMO1, 0.0211 µM	122	123	106
NOMO1, 0.0632 µM	116	106	112
NOMO1, 0.19 µM	120	113	116
NOMO1, 0.569 µM	109	107	114
NOMO1, 1.71 µM	110	102	109
NOMO1, 5.12 µM	101	111	98.6
NOMO1, 15.4 µM	84.9	94.4	110
NOMO1, 46.1 µM	63.8	92.1	101
SEM cells, 0.000781 µM	–	–	74.3
SEM cells, 0.00234 µM	–	103	105
SEM cells, 0.00702 µM	–	121	95.3
SEM cells, 0.0211 µM	–	123	124
SEM cells, 0.0632 µM	–	115	89.7
SEM cells, 0.19 µM	–	102	96.8
SEM cells, 0.569 µM	–	125	107
SEM cells, 1.71 µM	–	125	118
SEM cells, 5.12 µM	–	115	107
SEM cells, 15.4 µM	–	116	98.1
SEM cells, 46.1 µM	–	135	108
